Results as given in patent USRE29244E, “Coccidiostats” (priority 1976, dated 1977).
Counter-ions that a name gives are not always drawn.

Tests used:
[1] = tested on: Eimeria tenella; experiment: Eimeria tenella infection in laboratory chickens; type: in vivo; parameters: Average degree of infection: scale not given here
Experimental: (A) Eimeria tanella infection in laboratory chickens
Test method.--This test utilizes ten chickens per drug group. Ten chickens are employed as a weight control and ten chickens as an infected control. The drug is given 48 hours in advance of the infection. One gm. of the test drug is mixed in a mechanical mixer with a sufficient amount of chicken feed to result in the desired dosage. The infection consists of approximately 200,000 oocysts given orally by pipette. The tests lasts for eleven days and then the surviving birds are autopsied and examined for gross lesions in the ceca. The test birds are rated according to the number of survivors and the number of cecal lesions. The results are expressed as average degree of infection (A.D.I.). An average degree of infection of less than 2.5 is considered significant.

[2] = Acute oral toxicity in broiler chicks; conditions: chicken, in vivo; oral single dose, 9- or 8-day-old chicks; limits given as 59 ±3 mg. and 84 ±7 mg.

CCC(C(=O)C(C)C(O)C(C)CCc1ccc(C)c(O)c1C(=O)O)C1OC(CC)(C2CCC(O)(CC)C(C)O2)CC1C (stereo not drawn) [sodium salt of antibiotic X-537A]
Average degree of infection ([1]; text: 0.003% of active ingredient in feed to chicks): 1.7 | Average degree of infection ([1]; text: 0.006% of active ingredient in feed to chicks): 0.2 | LD50 [2]: 59 to 84 mg/kg
